In one experiment the target is Rheb (Homo sapiens (Human), UniProt Q15382). Put plainly: Affinity Selection Mass Spectrometry (ASMS). Format: binding. The conditions noted are these: affinity (R3/R0) in Affinity Selection Mass Spectrometry assay. How it is done: Method 2 (Affinity Selection Mass Spectrometry
Protein: Rheb (19 KDa) in the following buffer: 20 mM Tris, pH 8.0, 200 mM NaCl, 2 mM DTT, 5 mM MgCl2 was prepared as under.
Human Rheb protein (I-169) was purified from BL21 (DE3) E. coli using a His-Smt-Rheb expression vector. The cell paste was lysed in lysis buffer (50 mM HEPES pH 7.5, 0.5 M NaCl, 5% Glycerol, 1% CHAPS, EDTA free protease inhibitor tablets, lysozyme to 1 mg/mL, benzonase 250U), sonicated, and purified on a HiTrap Ni Chelating Column (GE Healthcare) using the following buffer: 50 mM HEPES pH 7.5, 0.5 M NaCl, 5% Glycerol, and imidazole increasing in concentration from 5 mM to 500 mM. The His-Smt tag was cleaved using a U1p1 enzyme and dialyzed into 50 mM HEPES pH 7.5, 0.5 M NaCl, 5% Glycerol. The resultant protein was again purified on a Ni Chelating column to remove the U1p1 enzyme and His-Smt tag and then purified by size exclusion chromatography on a Sephacryl S-100 26/60 column into the following final buffer: 20 mM NaPhos pH 7.0, 100 mM NaCl, 5 mM MgCl2, 2 mM TCEP.
Concentrations: 60 μM Rheb, 180 μM GDP and 2 μM of each compound,
Ultrafiltration Filter (Sartorius, Germany) MW cutoff: 10 KDa
• (a) Sample preparation: Prepare sample for each group in 1.5 mL microcentrifuge tube according to the experimental design, total volume 550 μL. In a standard ASMS experiment there are two groups: Protein plus (P+L+) and protein minus (P−L+). • (b) Transfer 50 μL from the 550 μL to a vial as R0 sample. Incubate the rest solution for 30 min at room temperature. Then transfer the 500 μL into an ultrafiltration filter tube and centrifuge at 12×10^3 rpm for ˜10 min, leave about 50 μL solution (otherwise adjust this time). • (c) Add incubation buffer to the ultrafiltration filter tube to about 500 μL. Stir gently and centrifuge mixtures as above, leave about 50 μL solution. • (d) Repeat the step c. Transfer the remaining 50 μL upper layer solution to a new vial as R^3 sample. Sample Extraction: Add 150 μL MeCN to denature the protein completely. Centrifuge at 12×10^3 rpm for 5 min. Transfer the supernatant into LC-MS auto sampler vials for LC-MS analysis (5 uL injection).
Waters Acquity UPLC system, Waters ACQUITY UPLC BEH C18 column (2.1×50 mm, 1.7 μM); Mobile phase A: 0.1% formic acid solution, B: MeCN; 0.3 mL/min, 5 μL injection, gradient elution (Table 5).
Waters Synapt G1 Q-TOF system, positive or negative ion scan modes; Capillary voltage: 3.0 kV; Method: MSE; Mass range: m/z=100-1000; Source temperature: 120° C.; Desolvation temperature: 400° C.; Collision voltage: 35 V; Sampling Cone: 35 V; Extraction Cone: 4.0 V; Cone Gas: 50 L/h; Desolvation Gas: 800 L/h.

Experiment [1] deals with HA-GST-Rheb (GTP-γ-S loaded) activating mTORC1 (Homo sapiens (Human), UniProt Q15382). As to the kind of experiment: Rheb-dependent in vitro kinase assay (Rheb-IVK; LanthaScreen or Western readout). It is filed as biochemical. Particulars: Rheb-dependent in vitro kinase assay; read-out: IVK IC50.
HA-GST-Rheb (GTP-γ-S loaded) activating mTORC1, sequence (Q15382 1-181): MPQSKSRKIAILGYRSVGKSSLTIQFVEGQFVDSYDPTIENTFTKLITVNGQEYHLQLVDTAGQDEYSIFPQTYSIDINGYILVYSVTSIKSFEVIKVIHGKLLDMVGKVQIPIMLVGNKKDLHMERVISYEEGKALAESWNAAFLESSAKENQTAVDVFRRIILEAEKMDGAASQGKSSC

Rheb, sequence (Q15382 1-169 limits assumed): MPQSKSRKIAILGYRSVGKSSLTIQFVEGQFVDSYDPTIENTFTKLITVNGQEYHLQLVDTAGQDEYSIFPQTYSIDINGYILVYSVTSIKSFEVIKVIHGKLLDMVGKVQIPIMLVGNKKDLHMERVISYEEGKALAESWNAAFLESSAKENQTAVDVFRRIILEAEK

As to `O=C(O)c1cc2c(Oc3ccccc3)cc(Cl)cc2[nH]1` [I-175, 6-chloro-4-phenoxy-1H-indole-2-carboxylic acid], the “ASMS (R3/R0)” value at Rheb is “B (an affinity (R3/R0) between 100% and 20%)”. Further, in experiment [1], the IC50 lay in the range of 100 to 300 µM.

Regarding `CN(C)C(=O)c1ccc(Cn2c(C(=O)O)cc3ccc(Sc4ccc(Oc5ccccc5)cc4)cc32)cc1` [I-17, 1-(4-(dimethylcarbamoyl)benzyl)-6-(4-phenoxyphenylthio)-1H-indole-2-carboxylic acid], the “ASMS (R3/R0)” value at Rheb is “B (an affinity (R3/R0) between 100% and 20%)”. The IC50 in experiment [1] was less than 10 µM.

For the molecule `O=C(O)c1ccc(CCn2c(-c3c[nH]c4ncccc34)nc3cc(Cl)c(Cl)cc32)cc1` [I-335, 4-(2-(5,6-dichloro-2-(1H-pyrrolo[2,3-b]pyridin-3-yl)-1H-benzo[d]imidazol-1-yl)ethyl)benzoic acid], the “ASMS (R3/R0)” value on Rheb is “B (an affinity (R3/R0) between 100% and 20%)”. Further, the IC50 in experiment [1] lay within 100 to 300 µM.

Take `CC(C)NC(=O)c1ccc(Cn2c(C(=O)O)cc3c(Br)cc(Sc4ccc(Cl)c(Cl)c4)cc32)cc1` [I-101]: on Rheb, the “ASMS (R3/R0)” value is “B (an affinity (R3/R0) between 100% and 20%)”. Also, in experiment [1], the IC50 is greater than 100 µM.

As for `CN(C)C(=O)c1ccc(Cn2c(C(=O)O)cc3c(C#N)cc(Sc4ccc(Cl)c(Cl)c4)cc32)cc1` [I-7, 4-cyano-6-(3,4-dichlorophenylthio)-1-(4-(dimethylcarbamoyl)benzyl)-1H-indole-2-carboxylic acid], the “ASMS (R3/R0)” value on Rheb was “B (an affinity (R3/R0) between 100% and 20%)”. In experiment [1], the IC50 was less than 10 µM.

For the molecule `OCc1cc2c(Oc3ccc(Cl)cc3)cccc2[nH]1` [I-263, (4-(4-chlorophenoxy)-1H-indol-2-yl)methanol], the “ASMS (R3/R0)” value at Rheb is on record as “C (an affinity (R3/R0)<20%)”. For the same molecule, in experiment [1], the IC50 is 10 to 100 µM.

As to `Brc1cc(Oc2ccccc2)cc2c1ccn2Cc1ccc(-c2nn[nH]n2)cc1` [I-220, 1-(4-(2H-tetrazol-5-yl)benzyl)-4-bromo-6-phenoxy-1H-indole], the “ASMS (R3/R0)” value at Rheb is “A (an affinity (R3/R0)>100%)”. Besides, in experiment [1], the IC50 was less than 10 µM.

Turning to `OCc1cc2c(OCc3cccc(Cl)c3)cc(Cl)cc2[nH]1` [I-176, (6-chloro-4-(3-chlorobenzyloxy)-1H-indol-2-yl)methanol], at Rheb, the “ASMS (R3/R0)” value is “B (an affinity (R3/R0) between 100% and 20%)”. Further, in experiment [1], the 50% inhibitory concentration (IC50) lay in the range of 10 to 100 µM.

For the molecule `OCc1cc2c(Oc3cc(Cl)ccc3Cl)cc(Cl)cc2[nH]1` [I-171, (6-Chloro-4-(2,5-dichlorophenoxy)-1H-indol-2-yl)methanol], at Rheb, the “ASMS (R3/R0)” value is “B (an affinity (R3/R0) between 100% and 20%)”. The IC50 in experiment [1] was in the range of 10 to 100 µM.

As for `CN(C)C(=O)c1ccc(Cn2c(C(=O)O)cc3c(Sc4cccc(OC(F)(F)F)c4)cc(Sc4cccc(OC(F)(F)F)c4)cc32)cc1` [I-19, 1-(4-(dimethylcarbamoyl)benzyl)-4,6-bis(3-(trifluoromethoxy)phenylthio)-1H-indole-2-carboxylic acid], the “ASMS (R3/R0)” value on Rheb is “B (an affinity (R3/R0) between 100% and 20%)”. In experiment [1], the 50% inhibitory concentration (IC50) was less than 10 µM.

As for `c1ccc(Oc2cccc3[nH]ccc23)cc1` [I-296, 4-phenoxy-1H-indole], the “ASMS (R3/R0)” value on Rheb is on record as “C (an affinity (R3/R0)<20%)”. The IC50 in experiment [1] was 100 to 300 µM.

Regarding `Clc1cc2nc(-c3ccc(-c4ccncc4)cc3)[nH]c2cc1Cl` [I-372], the “ASMS (R3/R0)” value at Rheb is on record as “A (an affinity (R3/R0)>100%)”. Also, the IC50 in experiment [1] is greater than 100 µM.

`O=C(NCCn1ccc2ccccc21)c1cc2c(Sc3ccc(Cl)cc3)cc(Cl)cc2[nH]1` [I-131]: the “ASMS (R3/R0)” value at Rheb is “B (an affinity (R3/R0) between 100% and 20%)”. In addition, in experiment [1], the IC50 was greater than 100 µM.

For the molecule `Cc1nc2c(OCc3ccc(Cl)cc3)c(Cl)c(Cl)cc2[nH]1` [I-340], the “ASMS (R3/R0)” value at Rheb is “B (an affinity (R3/R0) between 100% and 20%)”. Moreover, in experiment [1], the IC50 was greater than 100 µM.

Consider `O=C(O)c1cc2c(Oc3cccc4cnccc34)cc(Cl)cc2[nH]1` [I-41, 6-chloro-4-(isoquinolin-5-yloxy)-1H-indole-2-carboxylic acid], for which the “ASMS (R3/R0)” value on Rheb is given as “C (an affinity (R3/R0)<20%)”. Besides, the IC50 in experiment [1] was in the range of 100 to 300 µM.

Take `OCc1cc2cc(SCc3ccc(Cl)cc3)c(Cl)cc2[nH]1` [I-76, (6-chloro-5-(4-chlorobenzylthio)-1H-indol-2-yl)methanol]: the “ASMS (R3/R0)” value on Rheb was “B (an affinity (R3/R0) between 100% and 20%)”. In addition, the half-maximal inhibitory concentration (IC50) in experiment [1] was 10 to 100 µM.

As for “4-bromo-6-(3,4-dichlorophenylthio)-1-(4-((2-hydroxyethyl)(methyl)carbamoyl)benzyl)-1H-indole-2-carboxylic acid [I-51]”, at Rheb, the “ASMS (R3/R0)” value is “B (an affinity (R3/R0) between 100% and 20%)”. In experiment [1], the IC50 was less than 10 µM.

In the case of `Nc1ccc(-c2nc3cc(Cl)c(Cl)cc3[nH]2)cc1` [I-360], at Rheb, the “ASMS (R3/R0)” value was “B (an affinity (R3/R0) between 100% and 20%)”. The IC50 in experiment [1] is greater than 100 µM.

Turning to `OCc1cc2c(Sc3ccc4ccccc4c3)cc(Cl)cc2[nH]1` [I-134, (6-chloro-4-(naphthalen-2-ylthio)-1H-indol-2-yl)methanol], at Rheb, the “ASMS (R3/R0)” value is “B (an affinity (R3/R0) between 100% and 20%)”. In experiment [1], the IC50 lay in the range of 10 to 100 µM.

For `CN1CCC[C@H]1CNC(=O)c1ccc(-c2nc3cc(Cl)c(Cl)cc3[nH]2)cc1` [I-336], the “ASMS (R3/R0)” value on Rheb is “B (an affinity (R3/R0) between 100% and 20%)”. Besides, in experiment [1], the IC50 is greater than 100 µM.

For the molecule `O=C(O)c1nc2c(OCc3ccc(Cl)cc3)c(Cl)c(Cl)cc2[nH]1` [I-333], the “ASMS (R3/R0)” value on Rheb is recorded as “A (an affinity (R3/R0)>100%)”. Besides, the IC50 in experiment [1] was 10 to 100 µM.

Take `CN1CCC(CCNC(=O)c2cc3c(Br)cc(Sc4ccc(Cl)c(Cl)c4)cc3n2Cc2ccc(C(=O)OC(C)(C)C)cc2)CC1` [I-110]: the “ASMS (R3/R0)” value on Rheb is “C (an affinity (R3/R0)<20%)”. In addition, the IC50 in experiment [1] is greater than 100 µM.

On to `O[C@@H]1CCC[C@@H](COc2c(Cl)c(Cl)cc3[nH]c(-c4ccncc4)nc23)C1` [I-323], for which the “ASMS (R3/R0)” value at Rheb is “B (an affinity (R3/R0) between 100% and 20%)”. In experiment [1], the IC50 is greater than 3 µM.

`CN1CCN(c2ccc(NC(=O)c3cc4c(Sc5ccc(Cl)cc5Cl)cc(Cl)cc4[nH]3)cc2C#N)CC1` [I-112, 6-chloro-N-(3-cyano-4-(4-methylpiperazin-1-yl)phenyl)-4-(2,4-dichlorophenylthio)-1H-indole-2-carboxamide]: the “ASMS (R3/R0)” value at Rheb is “C (an affinity (R3/R0)<20%)”. The 50% inhibitory concentration (IC50) in experiment [1] was less than 10 µM.

On to `O=C(O)c1cc2c(Oc3cc(Cl)ccc3Cl)cc(Cl)cc2[nH]1` [I-172, 6-Chloro-4-(2,5-dichlorophenoxy)-1H-indole-2-carboxylic acid], for which the “ASMS (R3/R0)” value on Rheb is “B (an affinity (R3/R0) between 100% and 20%)”. Moreover, the IC50 in experiment [1] was in the range of 10 to 100 µM.

Regarding `CN1CCC(NC(=O)c2cc3c(Sc4ccc(Cl)cc4Cl)cc(Cl)cc3[nH]2)CC1` [I-114], at Rheb, the “ASMS (R3/R0)” value is “B (an affinity (R3/R0) between 100% and 20%)”. Moreover, in experiment [1], the IC50 was greater than 100 µM.

Take `O=C(O)c1ccc(Cn2c(C(=O)O)cc3c(Br)cc(Sc4ccc(Cl)c(Cl)c4)cc32)cc1` [I-42, 4-bromo-1-(4-carboxybenzyl)-6-(3,4-dichlorophenylthio)-1H-indole-2-carboxylic acid]: the “ASMS (R3/R0)” value on Rheb was “B (an affinity (R3/R0) between 100% and 20%)”. The IC50 in experiment [1] is less than 10 µM.

For `CN(C)Cc1cc2c(Br)cc(Sc3ccc(Cl)c(Cl)c3)cc2n1Cc1ccc(C(=O)N(C)C)cc1` [I-39], on Rheb, the “ASMS (R3/R0)” value was “B (an affinity (R3/R0) between 100% and 20%)”. For the same molecule, in experiment [1], the 50% inhibitory concentration (IC50) is greater than 100 µM.

Regarding `O[C@@H]1CCC[C@H](COc2c(Cl)c(Cl)cc3[nH]c(-c4ccncc4)nc23)C1` [I-324, (1R,3S)-3-((5,6-dichloro-2-(pyridin-4-yl)-1H-benzo[d]imidazol-4-yloxy)methyl)cyclohexanol], the “ASMS (R3/R0)” value on Rheb was “B (an affinity (R3/R0) between 100% and 20%)”. In experiment [1], the IC50 is greater than 3 µM.

For the molecule `OCc1cc2c(Sc3cccc(OC(F)(F)F)c3)cc(Cl)cc2[nH]1` [I-122, (6-chloro-4-(3-(trifluoromethoxy)phenylthio)-1H-indol-2-yl)methanol], the “ASMS (R3/R0)” value at Rheb was “B (an affinity (R3/R0) between 100% and 20%)”. The IC50 in experiment [1] is less than 10 µM.
